Where “and” joins values, the source holds several entries; their conditions need not be identical. Identical values can stand only once.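 1) Cells in 96-well plates. 2) Compound, 48 h, 5 concentrations. 3) Linear interpolation between surrounding doses. 4) Unreached endpoint = highest concentration. Abbreviation: GI50, concentration required for 50% inhibition of growth. The concentration for full growth arrest is given as TGI.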
Experiments:
Test in all cases: DTP human tumour cell line panel, 48 h
MDA-N = test system: MDA-N
HCT-116 colon = test system: HCT-116 colon
OVCAR-4 ovarian = test system: OVCAR-4 ovarian
UO-31 renal = test system: UO-31 renal
HL-60(TB) leukemia = test system: HL-60(TB) leukemia
HCC-2998 colon = test system: HCC-2998 colon
786-0 renal = test system: 786-0 renal
MDA-MB-435 = test system: MDA-MB-435
SN12C renal = test system: SN12C renal
LOX IMVI melanoma = test system: LOX IMVI melanoma
SF-268 CNS = test system: SF-268 CNS
SK-MEL-5 melanoma = test system: SK-MEL-5 melanoma
BT-549 breast = test system: BT-549 breast
RPMI-8226 leukemia = test system: RPMI-8226 leukemia
MCF7 breast = test system: MCF7 breast
SK-MEL-28 melanoma = test system: SK-MEL-28 melanoma
A549 NSCLC = test system: A549 NSCLC
UACC-62 melanoma = test system: UACC-62 melanoma
SK-MEL-2 melanoma = test system: SK-MEL-2 melanoma
PC-3 prostate = test system: PC-3 prostate
SK-OV-3 ovarian = test system: SK-OV-3 ovarian
RXF 393 renal = test system: RXF 393 renal
K-562 leukemia = test system: K-562 leukemia
OVCAR-5 ovarian = test system: OVCAR-5 ovarian
HS 578T breast = test system: HS 578T breast
NCI-H460 lung = test system: NCI-H460 lung
M14 melanoma = test system: M14 melanoma
SW-620 colon = test system: SW-620 colon
MOLT-4 leukemia = test system: MOLT-4 leukemia
HT29 colon = test system: HT29 colon
CCRF-CEM leukemia = test system: CCRF-CEM leukemia
SNB-19 CNS = test system: SNB-19 CNS
EKVX NSCLC = test system: EKVX NSCLC
HCT-15 colon = test system: HCT-15 colon
ACHN renal = test system: ACHN renal
NCI-H23 lung = test system: NCI-H23 lung
MALME-3M melanoma = test system: MALME-3M melanoma
SF-539 CNS = test system: SF-539 CNS
COLO 205 colon = test system: COLO 205 colon
OVCAR-3 ovarian = test system: OVCAR-3 ovarian
U251 CNS = test system: U251 CNS
DU-145 prostate = test system: DU-145 prostate
OVCAR-8 ovarian = test system: OVCAR-8 ovarian
KM12 colon = test system: KM12 colon
TK-10 renal = test system: TK-10 renal
SR leukemia = test system: SR leukemia
NCI-H226 lung = test system: NCI-H226 lung
T-47D breast = test system: T-47D breast
SNB-75 CNS = test system: SNB-75 CNS
HOP-62 NSCLC = test system: HOP-62 NSCLC
SF-295 CNS = test system: SF-295 CNS
MDA-MB-231 breast = test system: MDA-MB-231 breast
HOP-92 NSCLC = test system: HOP-92 NSCLC
IGROV1 ovarian = test system: IGROV1 ovarian
A498 renal = test system: A498 renal
UACC-257 melanoma = test system: UACC-257 melanoma
NCI-H522 lung = test system: NCI-H522 lung
CAKI-1 renal = test system: CAKI-1 renal

## OCCN(/N=C\c1ccc2ccccc2c1)C1=NCCN1
MDA-N
  TGI: 32.4 µM
HCT-116 colon
  TGI: 79.9 µM
OVCAR-4 ovarian
  TGI: > 100 µM
UO-31 renal
  TGI: > 100 µM
HL-60(TB) leukemia
  TGI: 43.6 µM
HCC-2998 colon
  TGI: 32.6 µM
786-0 renal
  TGI: 64.4 µM
MDA-MB-435
  TGI: 32.7 µM
SN12C renal
  TGI: > 100 µM
LOX IMVI melanoma
  TGI: 30.6 µM
SF-268 CNS
  TGI: > 100 µM
SK-MEL-5 melanoma
  TGI: 33.1 µM
BT-549 breast
  TGI: > 100 µM
RPMI-8226 leukemia
  TGI: 60.8 µM
MCF7 breast
  TGI: > 100 µM
SK-MEL-28 melanoma
  TGI: 35.3 µM
A549 NSCLC
  TGI: > 100 µM
UACC-62 melanoma
  TGI: 48.6 µM
SK-MEL-2 melanoma
  TGI: 42.6 µM
PC-3 prostate
  TGI: > 100 µM
SK-OV-3 ovarian
  TGI: > 100 µM
RXF 393 renal
  TGI: 36.1 µM
K-562 leukemia
  TGI: 30.4 µM
OVCAR-5 ovarian
  TGI: 72.2 µM
HS 578T breast
  TGI: > 100 µM
NCI-H460 lung
  TGI: > 100 µM
M14 melanoma
  TGI: 35 µM
SW-620 colon
  TGI: 55.6 µM
MOLT-4 leukemia
  TGI: 44.5 µM
HT29 colon
  TGI: 89 µM
CCRF-CEM leukemia
  TGI: 71.4 µM
SNB-19 CNS
  TGI: > 100 µM
EKVX NSCLC
  TGI: > 100 µM
HCT-15 colon
  TGI: > 100 µM
ACHN renal
  TGI: > 100 µM
NCI-H23 lung
  TGI: > 100 µM
MALME-3M melanoma
  TGI: 29.6 µM
SF-539 CNS
  TGI: 43.6 µM
COLO 205 colon
  TGI: 34.8 µM
OVCAR-3 ovarian
  TGI: > 100 µM
U251 CNS
  TGI: 73.8 µM
DU-145 prostate
  TGI: > 100 µM
OVCAR-8 ovarian
  TGI: > 100 µM
KM12 colon
  TGI: > 100 µM
TK-10 renal
  TGI: > 100 µM
SR leukemia
  TGI: 55.9 µM
NCI-H226 lung
  TGI: 36.1 µM
T-47D breast
  TGI: > 100 µM
SNB-75 CNS
  TGI: > 100 µM
HOP-62 NSCLC
  TGI: > 100 µM
SF-295 CNS
  TGI: > 100 µM
MDA-MB-231 breast
  TGI: 33.4 µM
HOP-92 NSCLC
  TGI: 53.1 µM
IGROV1 ovarian
  TGI: > 100 µM

## O=C1CC(c2cccc(F)c2)Nc2cc3c(cc21)OCO3 (stereo unspecified)
MDA-N
  GI50: < 0.01 µM
  TGI: 0.0377 µM and < 0.01 µM
HCT-116 colon
  GI50: < 0.01 µM
  TGI: > 100 µM
OVCAR-4 ovarian
  GI50: > 100 µM
  TGI: > 100 µM
UO-31 renal
  GI50: < 0.01 µM
  TGI: > 100 µM
HCC-2998 colon
  GI50: < 0.01 µM
  TGI: < 0.01 µM
786-0 renal
  GI50: < 0.01 µM
  TGI: > 100 µM
MDA-MB-435
  GI50: < 0.01 µM
  TGI: < 0.01 µM
SN12C renal
  GI50: 0.207 µM
  TGI: > 100 µM
LOX IMVI melanoma
  GI50: < 0.01 µM
  TGI: > 100 µM
SF-268 CNS
  GI50: 1.53 µM
  TGI: > 100 µM
SK-MEL-5 melanoma
  GI50: < 0.01 µM
  TGI: < 0.01 µM
A498 renal
  TGI: > 100 µM
RPMI-8226 leukemia
  TGI: 0.162 µM
MCF7 breast
  GI50: < 0.01 µM
  TGI: > 100 µM
A549 NSCLC
  GI50: < 0.01 µM
  TGI: > 100 µM
UACC-62 melanoma
  GI50: < 0.01 µM
  TGI: < 0.01 µM
PC-3 prostate
  GI50: < 0.01 µM
  TGI: > 100 µM
SK-OV-3 ovarian
  GI50: 0.0111 µM
  TGI: > 100 µM
RXF 393 renal
  TGI: 0.0943 µM
K-562 leukemia
  TGI: > 100 µM
OVCAR-5 ovarian
  GI50: 13.4 µM
  TGI: > 100 µM
HS 578T breast
  TGI: > 100 µM
M14 melanoma
  GI50: < 0.01 µM
  TGI: > 100 µM
SW-620 colon
  GI50: < 0.01 µM
  TGI: > 100 µM
UACC-257 melanoma
  GI50: < 0.01 µM
  TGI: > 100 µM
MOLT-4 leukemia
  TGI: < 0.01 µM
HT29 colon
  TGI: 0.0667 µM
CCRF-CEM leukemia
  GI50: < 0.01 µM
  TGI: > 100 µM
NCI-H522 lung
  TGI: 0.0602 µM
SNB-19 CNS
  TGI: 3.12 µM
EKVX NSCLC
  TGI: > 100 µM
HCT-15 colon
  GI50: < 0.01 µM
  TGI: > 100 µM
ACHN renal
  GI50: < 0.01 µM
  TGI: 22.6 µM
SF-539 CNS
  GI50: < 0.01 µM
CAKI-1 renal
  GI50: < 0.01 µM
  TGI: > 100 µM
COLO 205 colon
  GI50: < 0.01 µM
OVCAR-3 ovarian
  GI50: < 0.01 µM
  TGI: > 100 µM
U251 CNS
  GI50: < 0.01 µM
  TGI: > 100 µM
DU-145 prostate
  GI50: < 0.01 µM
  TGI: > 100 µM
OVCAR-8 ovarian
  TGI: 1.52 µM
TK-10 renal
  GI50: > 100 µM
  TGI: > 100 µM
NCI-H226 lung
  GI50: < 0.01 µM
T-47D breast
  TGI: > 100 µM
HOP-62 NSCLC
  GI50: 2.65 µM
  TGI: > 100 µM
SF-295 CNS
  GI50: < 0.01 µM
  TGI: > 100 µM
MDA-MB-231 breast
  GI50: 0.04 µM
  TGI: > 100 µM
HOP-92 NSCLC
  GI50: 30.8 µM
  TGI: > 100 µM

## NNC(=S)NCCNC(=S)NN
MDA-N
  TGI: > 100 µM
HCT-116 colon
  TGI: > 100 µM
OVCAR-4 ovarian
  TGI: > 100 µM
UO-31 renal
  TGI: > 100 µM
HL-60(TB) leukemia
  TGI: > 100 µM
HCC-2998 colon
  TGI: > 100 µM
786-0 renal
  TGI: > 100 µM
MDA-MB-435
  TGI: > 100 µM
SN12C renal
  TGI: > 100 µM
LOX IMVI melanoma
  TGI: > 100 µM
SF-268 CNS
  TGI: > 100 µM
SK-MEL-5 melanoma
  TGI: > 100 µM
BT-549 breast
  TGI: > 100 µM
RPMI-8226 leukemia
  TGI: > 100 µM
SK-MEL-28 melanoma
  TGI: > 100 µM
A549 NSCLC
  TGI: > 100 µM
UACC-62 melanoma
  TGI: > 100 µM
SK-MEL-2 melanoma
  TGI: > 100 µM
PC-3 prostate
  TGI: > 100 µM
SK-OV-3 ovarian
  TGI: > 100 µM
OVCAR-5 ovarian
  TGI: > 100 µM
HS 578T breast
  TGI: > 100 µM
NCI-H460 lung
  TGI: > 100 µM
M14 melanoma
  TGI: > 100 µM
SW-620 colon
  TGI: > 100 µM
UACC-257 melanoma
  TGI: > 100 µM
MOLT-4 leukemia
  TGI: > 100 µM
HT29 colon
  TGI: > 100 µM
CCRF-CEM leukemia
  TGI: > 100 µM
NCI-H522 lung
  TGI: > 100 µM
SNB-19 CNS
  TGI: > 100 µM
EKVX NSCLC
  TGI: > 100 µM
ACHN renal
  TGI: > 100 µM
NCI-H23 lung
  TGI: > 100 µM
MALME-3M melanoma
  TGI: > 100 µM
CAKI-1 renal
  TGI: > 100 µM
COLO 205 colon
  TGI: > 100 µM
OVCAR-3 ovarian
  TGI: > 100 µM
U251 CNS
  TGI: > 100 µM
DU-145 prostate
  TGI: > 100 µM
KM12 colon
  TGI: > 100 µM
SR leukemia
  TGI: > 100 µM
T-47D breast
  TGI: > 100 µM
SNB-75 CNS
  TGI: > 100 µM
HOP-62 NSCLC
  TGI: > 100 µM
SF-295 CNS
  TGI: > 100 µM
MDA-MB-231 breast
  TGI: > 100 µM
IGROV1 ovarian
  TGI: > 100 µM
